Values of other authors as cited in patent publication US12357667B2, “Nutraceutical formulations to prevent, treat, and inhibit excess cytokines, SARS-CoV-2 spike proteins, and mRNA vaccine spike proteins” (priority 2021, dated 2025).

Columns and labels:
[1] = test system: variant spikes from the SARS-CoV-2 alpha and delta strains
[2] = test system: SARS-CoV-2 alpha variant B.1.1.7 and the beta variant B.1.351; settings: alpha variant B.1.1.7 and beta variant B.1.351

Row | SMILES | activity of variant spikes [1] | effectiveness against variants [2]
1 | CC(=O)N[C@@H](CS)C(=O)O [N-acetylcysteine, reference compound] | suppressed | –
2 | C=C(C)[C@@H]1CCC(C)=C[C@H]1c1c(O)cc(CCCCC)c(C(=O)O)c1O [cannabidiolic acid] | – | equally effective
3 | CCCCCc1cc(O)c(C/C=C(\C)CCC=C(C)C)c(O)c1C(=O)O [cannabigerolic acid] | – | equally effective
4 | N[C@@H](CCC(=O)N[C@@H](CS)C(=O)NCC(=O)O)C(=O)O [glutathione, γ-glutamyl cysteinyl glycine] | suppressed | –
